Source: US12364679B2, “Esters for treatment of ocular inflammatory conditions” (Johnson & Johnson Vision Care, Inc., priority 2011, dated 2025)

Columns and labels:
[1] = Uptake by senofilcon contact lenses from IPA solution, gas chromatography; format: physicochemical
Procedure: ALA-EE was dissolved in isopropanol (IPA) at the concentration of 0.05 or 0.5%. Silicone hydrogel contact lenses (senofilcon, commercially available as ACUVUE® OASYS® with […]® Plus lenses) were then allowed to soak in the ALA-EE-containing IPA for up to 1 hour at room temperature, followed by soaking in ALA-EE containing IPA/packing solution (70% IPA/30% packing solution) for up to 1 hour, rinsing in packing solution, and packaging of lenses in the packing solution. ALA-EE uptake by the contact lenses was quantified by gas chromatography.
A comparative silicone hydrogel contact lens that incorporated alpha linolenic acid (ALA), rather than the ester, was prepared following the same protocol as Example 6.

[2] = Uptake by narafilcon B contact lenses from propylene glycol solution, gas chromatography; format: physicochemical; conditions: for ALA-EE uptake: narafilcon B
Procedure: The alpha linolenic acid ethyl ester (ALA-EE) was dissolved in propylene glycol (PG) at concentrations of 0.05 and 0.5%, and silicon hydrogel lenses (Narafilcon B lenses (ACUVUE® TrueEye®)) were hydrated or soaked in the ALA-EE-containing propylene glycol solution for one hour at room temperature, followed by rinsing in DI water and repackaging of lenses in the packing solution. The lenses were packaging in borate buffer packing solution with 50 ppm methyl cellulose and autoclaved at 121° C. for 19 minutes. ALA-EE was quantified by gas chromatography.

[3] = test system: transepithelial permeability in vitro model; assay: Transepithelial permeability in vitro model (TEP test), fluorescein leakage; format: cell-based; conditions: 0.2%, relative to vehicle/controls
Procedure: The compositions of Examples 1A and 1B and Comparative Example 2A were tested in vitro as follows. A transepithelial permeability in vitro model (TEP test) was used to assess fluorescein leakage (or increased transepithelial permeability) with the free acid in comparison with the ester form of the alpha linolenic acid.

[4] = test system: corneal epithelium tissue construct (HCE construct, SkinEthic); conditions: human, 8 h
Procedure: (§1) The model uses a corneal epithelium tissue construct (e.g., HCE construct manufactured by SkinEthic).
(§2) The esterified anti-inflammatory lipid mediator dose-responses were then evaluated in the construct, whereby 30 microliters of the rewetting drop was topically applied to the tissue for 8 or 24 hours, and cell viability was then quantified along with a subset of selected potential biomarkers within the tissue culture media.

[5] = test system: "contact lens induced dry eye" subjects; assay: Comfort upon instillation to the eye (non-dispensing clinical studies); conditions: human, in vivo
Procedure: Preliminary non-dispensing clinical studies were conducted to further assess the use of omega-three fatty acid compositions. A 0.05 wt. % concentration ester version of an omega-three fatty acid was instilled on three “contact lens induced dry eye” subjects (each with at least one sign and one symptom of contact lens induced dry eye) without any acute ocular discomfort or physiological findings. Similarly, a 0.2 wt. % concentration ester version of the omega-three fatty acid was instilled on four “contact lens induced dry eye” subjects without any acute ocular discomfort or physiological findings.

[6] = test system: corneal epithelium tissue construct (HCE construct, SkinEthic); assay: Corneal epithelial tissue model, cell viability (MTT), 8 hour exposure; conditions: 0.001 and 0.01%
Procedure: as §1, §2

Row | ALA-EE uptake ([1]; 0.05% ALA-EE solution in IPA) | ALA-EE uptake ([1]; 0.5% ALA-EE solution in IPA) | hydrolysis of ester to free acid form ([1]; senofilcon lens loading from IPA) | hydrolysis of the ester to the acid ([2]; narafilcon B lens, PG loading, autoclaved 121° C.) | ALA-EE uptake ([2]; 0.05% ALA-EE solution) | ALA-EE uptake ([2]; 0.5% ALA-EE solution) | impact on the in vitro endpoint, times less than linolenic acid (ALA) [4] | response on the eye (acute ocular discomfort) [5] | uptake of ALA by the contact lenses ([1]; 0.05% ALA solution in IPA) | uptake of ALA by the contact lenses ([1]; 0.5% ALA solution in IPA) | Compound | effect on transepithelial permeability / fluorescein leakage [3] | cytotoxicity in the construct [6]
1 | 54 micrograms per lens | 611 micrograms per lens | did not hydrolyze to the free acid form | no detectable hydrolysis | 91 micrograms per lens | 721 micrograms per lens | 10 times | lack of acute ocular discomfort |  |  | CC/C=C\C/C=C\C/C=C\CCCCCCCC(=O)OCC [ALA-EE, ethyl linolenate] | behaved similarly to the vehicle | 
2 |  |  |  |  |  |  |  |  | 23 micrograms per lens | 300 micrograms per lens | CC/C=C\C/C=C\C/C=C\CCCCCCCC(=O)O [ALA, alpha-linolenic acid, reference compound] | significant increase in fluorescein leakage | 
3 |  |  |  |  |  |  |  |  |  |  | benzalkonium chloride [BAK] |  | non-cytotoxic
